Results taken from US20240116922A1, “IMIDAZO[1,2-A]PYRIDINE DERIVATIVES AS IRAK4 INHIBITORS AND THEIR USE IN THE TREATMENT OF DISEASE” (BIOGEN MA INC., priority 2020, published 2024).
Converted amounts (≈) assume the structure as drawn. Where a name gives a salt, the structure may show the parent alone.

How the values were obtained:
[1] = Kpuu assay (in vivo brain-to-plasma unbound partition); conditions: brain (unbound) versus plasma (unbound); intravenous infusion 4 to 24 h; unbound brain/plasma ratio; read-out: Brain Kpu, u
Experimental: For the brain-to-plasma partition coefficient (Kp) evaluation, a dosing solution was intravenously infused into animals at a constant flow rate for 4 to 24 h. Blood samples were serially collected during infusion, and CSF and brain samples were harvested at the end of infusion.
Tissue samples were typically homogenized in phosphate buffer saline (PBS) using a bead ruptor.
CSF samples were typically diluted with 8% BSA in PBS to prevent from non-specific binding. Artificial CSF (aCSF) is used as the surrogate matrix.
Calibration curves were prepared by spiking the analyte(s) into blank matrices, which were processed together with plasma, tissue homogenate and/or CSF samples by protein precipitation using a proper organic solvent (e.g. acetonitrile and methanol) containing generic analogue internal standards (e.g. verapamil, chrysin and glyburide). Matrix matching was used when analyzing multiple matrices in the same run. Samples above the upper limit of quantitation (ULOQ) needed to be diluted into the calibration range using either a pre-extraction or post-extraction dilution approach.
Processed samples were analyzed by LC-MS/MS using a proper method performing within the acceptable sensitivity, selectivity, precision and accuracy. For an analytical run to be accepted, over 75% of the calibration standards in the dual calibration curves needed to be within 20% of the nominal concentrations.
Brain concentrations were compared against plasma concentrations at the corresponding timepoint for the calculation of partition coefficient (Kp).
Unbound drug partition coefficient (Kpuu), defined as the ratio of unbound drug partition across the blood-brain barrier, was calculated using the equation below:
[formula] • Cb: measured total drug concentration in brain • Fub: unbound drug fraction in brain • Cp: measured total drug concentration in plasma • Fup: unbound drug fraction in plasma
The unbound fraction of the test compound was determined based on the protocols described below.
% Free=(PAR of buffer side/PAR of plasma side)*100 • PAR—Peak area ratio (PAR) • Fu % Free. 100 • Fu=fraction unbound

IRAK4 = IRAK4 (Homo sapiens (Human), UniProt Q9NWZ3); assay: IRAK4 MSD biochemical assay (2-hour 1 mM ATP); conditions: 0.1 nM IRAK4, 1 mM ATP, 2 hour at room temperature
MDR1 = MDR1 (Homo sapiens (Human), UniProt P08183); assay: in vitro; conditions: MDCK-MDR1
[2] = Kinetic solubility assay (CLND), pH 6.8; type: physicochemical; conditions: potassium phosphate buffer pH 6.8, 2% DMSO, 24 hours at ambient temperature; for solubility kinetic at 24 h: aqueous buffer, kinetic from dmso stock
[3] = target: Human MDR1 transfected MDCK cells (Homo sapiens (Human), UniProt P08183); assay: MDR1-MDCK assay; conditions: 1 μM test concentration, 120 minutes incubation
Chain of Human MDR1 transfected MDCK cells (P08183 whole entry): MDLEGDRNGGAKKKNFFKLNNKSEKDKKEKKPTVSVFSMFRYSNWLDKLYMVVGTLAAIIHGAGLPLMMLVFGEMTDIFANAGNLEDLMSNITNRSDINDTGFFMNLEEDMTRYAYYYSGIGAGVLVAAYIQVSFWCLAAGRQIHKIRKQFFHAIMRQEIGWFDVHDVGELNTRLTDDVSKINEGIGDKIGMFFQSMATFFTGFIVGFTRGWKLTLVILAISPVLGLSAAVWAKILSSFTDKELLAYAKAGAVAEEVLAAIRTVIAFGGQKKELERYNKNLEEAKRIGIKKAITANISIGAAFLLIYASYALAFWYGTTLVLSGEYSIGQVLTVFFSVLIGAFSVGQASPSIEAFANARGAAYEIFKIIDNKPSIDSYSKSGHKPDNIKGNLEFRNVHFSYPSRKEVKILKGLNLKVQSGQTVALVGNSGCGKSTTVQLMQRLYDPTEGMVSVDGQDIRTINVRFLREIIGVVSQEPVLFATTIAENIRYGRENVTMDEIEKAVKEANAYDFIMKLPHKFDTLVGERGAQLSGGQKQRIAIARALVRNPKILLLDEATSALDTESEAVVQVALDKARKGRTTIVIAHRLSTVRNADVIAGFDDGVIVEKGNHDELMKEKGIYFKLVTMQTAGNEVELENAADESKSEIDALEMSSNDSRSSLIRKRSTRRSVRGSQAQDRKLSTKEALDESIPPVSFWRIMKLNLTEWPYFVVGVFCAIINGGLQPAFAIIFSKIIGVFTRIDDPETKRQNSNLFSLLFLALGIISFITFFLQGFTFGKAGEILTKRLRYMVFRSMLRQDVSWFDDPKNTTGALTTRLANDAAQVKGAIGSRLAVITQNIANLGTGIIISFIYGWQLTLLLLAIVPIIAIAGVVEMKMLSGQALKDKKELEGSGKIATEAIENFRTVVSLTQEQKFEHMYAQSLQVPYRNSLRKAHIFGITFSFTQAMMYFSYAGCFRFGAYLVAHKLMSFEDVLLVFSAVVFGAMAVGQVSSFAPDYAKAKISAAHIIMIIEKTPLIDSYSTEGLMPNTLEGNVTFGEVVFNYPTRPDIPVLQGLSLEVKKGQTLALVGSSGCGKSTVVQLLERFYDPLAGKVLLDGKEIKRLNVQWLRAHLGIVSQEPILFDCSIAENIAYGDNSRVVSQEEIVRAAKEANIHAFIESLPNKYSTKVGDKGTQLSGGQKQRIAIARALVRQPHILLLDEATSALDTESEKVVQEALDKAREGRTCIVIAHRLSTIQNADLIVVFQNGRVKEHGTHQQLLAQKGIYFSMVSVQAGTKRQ

Chain of MDR1 (P08183 whole entry): as above
Chain of IRAK4 (Q9NWZ3 whole entry): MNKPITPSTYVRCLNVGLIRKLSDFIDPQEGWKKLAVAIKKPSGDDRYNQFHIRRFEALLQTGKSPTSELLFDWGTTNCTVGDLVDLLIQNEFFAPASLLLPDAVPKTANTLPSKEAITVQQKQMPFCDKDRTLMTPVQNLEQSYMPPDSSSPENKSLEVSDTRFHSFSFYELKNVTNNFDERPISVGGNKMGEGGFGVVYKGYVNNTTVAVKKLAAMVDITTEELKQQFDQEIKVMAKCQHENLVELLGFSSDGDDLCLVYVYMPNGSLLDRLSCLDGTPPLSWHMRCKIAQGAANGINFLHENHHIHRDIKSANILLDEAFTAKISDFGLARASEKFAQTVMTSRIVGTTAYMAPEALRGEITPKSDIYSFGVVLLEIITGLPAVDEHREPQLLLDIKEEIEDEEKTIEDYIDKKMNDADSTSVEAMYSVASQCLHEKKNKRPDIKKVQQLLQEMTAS

| Structure (SMILES) | Kpuu (unbound brain-to-plasma partition coefficient) [1] | IC50 (IRAK4) | efflux ratio at 120 min, 1 μM (MDR1) | solubility kinetic at 24 h [2] | MDR1-MDCK Efflux Ratio [3] | pH 6.8 Solubility (ug/mL) [2] |
| --- | --- | --- | --- | --- | --- | --- |
| CC(C)Oc1nc2nc(C34CCC(C)(CC3)OC4)cn2cc1C(=O)Nc1ccn(C)n1 [Comparator 6C, 7-isopropoxy-N-(1-methyl-1H-pyrazol-3-yl)-2-(1-methyl-2-oxabicyclo[2.2.2]octan-4-yl)imidazo[1,2-a]pyrimidine-6-carboxamide, reference compound] | 0.2 | 0.9 nM | 1.8 | 48.5 µg/mL (≈ 114 µM) | – | – |
| CC(C)Oc1cc2nc(C34CCC(C)(CC3)OC4)cn2cc1C(=O)Nc1cccn(C2CC2)c1=O [Example 3, N-(1-cyclopropyl-2-oxo-1,2-dihydropyridin-3-yl)-7-isopropoxy-2-(1-methyl-2-oxabicyclo[2.2.2]octan-4-yl)imidazo[1,2-a]pyridine-6-carboxamide] | 0.25 | 0.2 nM | 2.9 | 36 µg/mL (≈ 75.5 µM) | – | – |
| CC(C)Oc1cc2nc(C34COC(C)(C3)C4)cn2cc1C(=O)Nc1cccn(C2CC2)c1=O [Example 6, N-(1-cyclopropyl-2-oxo-1,2-dihydropyridin-3-yl)-7-isopropoxy-2-(1-methyl-2-oxabicyclo[2.1.1]hexan-4-yl)imidazo[1,2-a]pyridine-6-carboxamide] | 0.27 | 0.1 nM | 7.9 | 58 µg/mL (≈ 129 µM) | – | – |
| CC(C)Oc1cc2nc(C34COC(CF)(C3)C4)cn2cc1C(=O)Nc1cccn(C2CC2)c1=O [Example 9, N-(1-cyclopropyl-2-oxo-1,2-dihydropyridin-3-yl)-2-(1-(fluoromethyl)-2-oxabicyclo[2.1.1]hexan-4-yl)-7-isopropoxyimidazo[1,2-a]pyridine-6-carboxamide] | 0.18 | 0.4 nM | 9.7 | 70.6 µg/mL (≈ 151 µM) | – | – |
| CC[C@H](C)Oc1cc2nc(C34COC(C)(C3)C4)cn2cc1C(=O)Nc1cccn(C2CC2)c1=O [Example 19, (S)-7-(sec-butoxy)-N-(1-cyclopropyl-2-oxo-1,2-dihydropyridin-3-yl)-2-(1-methyl-2-oxabicyclo[2.1.1]hexan-4-yl)imidazo[1,2-a]pyridine-6-carboxamide] | 0.49 | 0.5 nM | 6 | 47 µg/mL (≈ 102 µM) | – | – |
| CC12CC(c3cn4cc(C(=O)Nc5cccn(C6CC6)c5=O)c(OC5CCC5)cc4n3)(CO1)C2 [Example 27, 7-cyclobutoxy-N-(1-cyclopropyl-2-oxo-1,2-dihydropyridin-3-yl)-2-(1-methyl-2-oxabicyclo[2.1.1]hexan-4-yl)imidazo[1,2-a]pyridine-6-carboxamide] | 0.42 | 0.6 nM | 4 | 65.7 µg/mL (≈ 143 µM) | – | – |
| O=C(Nc1cccn(C2CC2)c1=O)c1cn2cc(C34COC(C3)C4)nc2nc1OC1CCC1 [Example 36, 2-(2-oxabicyclo[2.1.1]hexan-4-yl)-7-cyclobutoxy-N-(1-cyclopropyl-2-oxo-1,2-dihydropyridin-3-yl)imidazo[1,2-a]pyrimidine-6-carboxamide] | – | 1.7 nM | – | – | 6.4 | 20.8 ug/mL |
| CC[C@H](C)Oc1nc2nc([C@@]34CC[C@@](C)(C3)OC4)cn2cc1C(=O)Nc1cccn(C2CC2)c1=O [Example 49, 7-((S)-sec-butoxy)-N-(1-cyclopropyl-2-oxo-1,2-dihydropyridin-3-yl)-2-((1S,4R)-1-methyl-2-oxabicyclo[2.2.1]heptan-4-yl)imidazo[1,2-a]pyrimidine-6-carboxamide] | 0.66 | 0.4 nM | 3.6 | 56.1 µg/mL (≈ 117 µM) | – | – |
| CC(C)Oc1c(C(=O)Nc2cccn(C3CC3)c2=O)cn2cc(C34COC(C)(C3)C4)nc2c1F [Example 61, N-(1-cyclopropyl-2-oxo-1,2-dihydropyridin-3-yl)-8-fluoro-7-isopropoxy-2-(1-methyl-2-oxabicyclo[2.1.1]hexan-4-yl)imidazo[1,2-a]pyridine-6-carboxamide] | 0.45 | 2 nM | 2.8 | 65.8 µg/mL (≈ 141 µM) | – | – |
| CC(C)Oc1nc2nc(C34CCC(C)(CC3)OC4)cn2cc1C(=O)Nc1cccn(C2CC2)c1=O [Example 77, N-(1-cyclopropyl-2-oxo-1,2-dihydropyridin-3-yl)-7-isopropoxy-2-(1-methyl-2-oxabicyclo[2.2.2]octan-4-yl)imidazo[1,2-a]pyrimidine-6-carboxamide] | 0.61 | 0.3 nM | 2.7 | 7.2 µg/mL (≈ 15.1 µM) | – | – |
| CC(C)Oc1cc2nc(C34CC(C#N)(C3)C4)cn2cc1C(=O)Nc1cccn(C2CC2)c1=O [Example 80, 2-(3-cyanobicyclo[1.1.1]pentan-1-yl)-N-(1-cyclopropyl-2-oxo-1,2-dihydropyridin-3-yl)-7-isopropoxyimidazo[1,2-a]pyridine-6-carboxamide] | 0.9 | 0.3 nM | 4.9 | 9.5 µg/mL (≈ 21.4 µM) | – | – |
| CC(C)Oc1nc2nc(C34COC(C)(C3)C4)cn2cc1C(=O)Nc1cccn(C2CC2(F)F)c1=O (stereo not drawn) [Example 84, N-(1-(2,2-difluorocyclopropyl)-2-oxo-1,2-dihydropyridin-3-yl)-7-isopropoxy-2-(1-methyl-2-oxabicyclo[2.1.1]hexan-4-yl)imidazo[1,2-a]pyrimidine-6-carboxamide] | 0.67 | 0.6 nM | 7.4 | 37.7 µg/mL (≈ 77.7 µM) | – | – |
| CC(C)Oc1cc2nc([C@]34CC[C@](C)(C3)OC4)cn2cc1C(=O)Nc1cccn([C@H]2C[C@H]2C)c1=O [Example 180, 7-isopropoxy-2-((1R,4S)-1-methyl-2-oxabicyclo[2.2.1]heptan-4-yl)-N-(1-((1S,2R)-2-methylcyclopropyl)-2-oxo-1,2-dihydropyridin-3-yl)imidazo[1,2-a]pyridine-6-carboxamide trifluoroacetate] | 1.58 | 0.2 nM | 2.6 | 23 µg/mL | – | – |
